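Interpolation was linear, between the two tested concentrations surrounding the appropriate level; five concentrations were tested over 48 hours in 96-well plates. Here, GI50 denotes the concentration required for 50% inhibition of growth. TGI: total growth inhibition.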
Experiments:
Experiment in all cases: inhibition of tumour cell growth, NCI panel, 48 h
IGROV1 ovarian = system: IGROV1 ovarian
SF-539 CNS = system: SF-539 CNS
ACHN renal = system: ACHN renal
MDA-MB-435 = system: MDA-MB-435
NCI-H460 lung = system: NCI-H460 lung
NCI/ADR-RES ovarian = system: NCI/ADR-RES ovarian
HS 578T breast = system: HS 578T breast
MALME-3M melanoma = system: MALME-3M melanoma
KM12 colon = system: KM12 colon
DLD-1 colon = system: DLD-1 colon
SN12C renal = system: SN12C renal
786-0 renal = system: 786-0 renal
DU-145 prostate = system: DU-145 prostate
SR leukemia = system: SR leukemia
MOLT-4 leukemia = system: MOLT-4 leukemia
SK-MEL-5 melanoma = system: SK-MEL-5 melanoma
SK-MEL-28 melanoma = system: SK-MEL-28 melanoma
K-562 leukemia = system: K-562 leukemia
SK-MEL-2 melanoma = system: SK-MEL-2 melanoma
HCT-116 colon = system: HCT-116 colon
HOP-92 NSCLC = system: HOP-92 NSCLC
HOP-62 NSCLC = system: HOP-62 NSCLC
KM20L2 colon = system: KM20L2 colon
UACC-257 melanoma = system: UACC-257 melanoma
A549 NSCLC = system: A549 NSCLC
SNB-75 CNS = system: SNB-75 CNS
HL-60(TB) leukemia = system: HL-60(TB) leukemia
NCI-H226 lung = system: NCI-H226 lung
RPMI-8226 leukemia = system: RPMI-8226 leukemia
SNB-19 CNS = system: SNB-19 CNS
DMS 273 small cell lung = system: DMS 273 small cell lung
M14 melanoma = system: M14 melanoma
CAKI-1 renal = system: CAKI-1 renal
SK-OV-3 ovarian = system: SK-OV-3 ovarian
NCI-H23 lung = system: NCI-H23 lung
OVCAR-8 ovarian = system: OVCAR-8 ovarian
XF 498 CNS = system: XF 498 CNS
A498 renal = system: A498 renal
SF-268 CNS = system: SF-268 CNS
SW-620 colon = system: SW-620 colon
OVCAR-5 ovarian = system: OVCAR-5 ovarian
BT-549 breast = system: BT-549 breast
LOX IMVI melanoma = system: LOX IMVI melanoma
SF-295 CNS = system: SF-295 CNS
M19-MEL melanoma = system: M19-MEL melanoma
COLO 205 colon = system: COLO 205 colon
UACC-62 melanoma = system: UACC-62 melanoma
T-47D breast = system: T-47D breast
UO-31 renal = system: UO-31 renal

O=C1C=CC=C[C@@H]2C(C3OCCO3)CC[C@H]12.[C-]#[O+].[C-]#[O+].[C-]#[O+].[Fe] (stereo partly specified)
GI50 (IGROV1 ovarian): 26 µM | TGI (IGROV1 ovarian): 78.7 µM | GI50 (SF-539 CNS): 44.6 µM | TGI (SF-539 CNS): 77.2 µM | GI50 (ACHN renal): 34.8 µM | TGI (ACHN renal): > 65.6 µM | GI50 (MDA-MB-435): 31.3 µM | TGI (MDA-MB-435): > 100 µM | GI50 (NCI-H460 lung): 45.2 µM | TGI (NCI-H460 lung): > 100 µM | GI50 (NCI/ADR-RES ovarian): > 100 µM | TGI (NCI/ADR-RES ovarian): > 100 µM | GI50 (HS 578T breast): > 100 µM | TGI (HS 578T breast): > 100 µM | GI50 (MALME-3M melanoma): 27.9 µM | TGI (MALME-3M melanoma): 62.3 µM | GI50 (KM12 colon): 48 µM | TGI (KM12 colon): > 100 µM | GI50 (DLD-1 colon): 19.8 µM | TGI (DLD-1 colon): 45 µM | GI50 (SN12C renal): 76.3 µM | TGI (SN12C renal): > 100 µM | GI50 (786-0 renal): > 69.3 µM | TGI (786-0 renal): > 100 µM | GI50 (DU-145 prostate): 93.3 µM | TGI (DU-145 prostate): > 100 µM | GI50 (SR leukemia): 18.4 µM | TGI (SR leukemia): > 83.5 µM | GI50 (MOLT-4 leukemia): 26.5 µM | TGI (MOLT-4 leukemia): 68.1 µM | GI50 (SK-MEL-5 melanoma): > 100 µM | TGI (SK-MEL-5 melanoma): > 100 µM | TGI (SK-MEL-28 melanoma): > 46.9 µM | GI50 (K-562 leukemia): 41.6 µM | TGI (K-562 leukemia): > 100 µM | GI50 (SK-MEL-2 melanoma): > 71.1 µM | TGI (SK-MEL-2 melanoma): > 100 µM | GI50 (HCT-116 colon): 18.9 µM | TGI (HCT-116 colon): 41.5 µM | GI50 (HOP-92 NSCLC): > 100 µM | TGI (HOP-92 NSCLC): > 100 µM | GI50 (HOP-62 NSCLC): > 95.3 µM | TGI (HOP-62 NSCLC): > 100 µM | GI50 (KM20L2 colon): > 100 µM | TGI (KM20L2 colon): > 100 µM | GI50 (UACC-257 melanoma): 98.5 µM | TGI (UACC-257 melanoma): > 100 µM | GI50 (A549 NSCLC): > 100 µM | TGI (A549 NSCLC): > 100 µM | GI50 (SNB-75 CNS): > 100 µM | TGI (SNB-75 CNS): > 100 µM | TGI (HL-60(TB) leukemia): > 100 µM | GI50 (NCI-H226 lung): > 83.5 µM | TGI (NCI-H226 lung): > 100 µM | GI50 (RPMI-8226 leukemia): 26.8 µM | TGI (RPMI-8226 leukemia): > 82.4 µM | GI50 (SNB-19 CNS): > 100 µM | TGI (SNB-19 CNS): > 100 µM | GI50 (DMS 273 small cell lung): 30.6 µM | TGI (DMS 273 small cell lung): > 100 µM | GI50 (M14 melanoma): 37.8 µM | TGI (M14 melanoma): > 74.9 µM | GI50 (CAKI-1 renal): 93.3 µM | TGI (CAKI-1 renal): > 100 µM | GI50 (SK-OV-3 ovarian): > 96 µM | TGI (SK-OV-3 ovarian): > 100 µM | GI50 (NCI-H23 lung): > 52.8 µM | TGI (NCI-H23 lung): > 83.7 µM | GI50 (OVCAR-8 ovarian): 24.8 µM | TGI (OVCAR-8 ovarian): 65.1 µM | GI50 (XF 498 CNS): > 100 µM | TGI (XF 498 CNS): > 100 µM | GI50 (A498 renal): > 100 µM | TGI (A498 renal): > 100 µM | GI50 (SF-268 CNS): > 60 µM | TGI (SF-268 CNS): > 100 µM | GI50 (SW-620 colon): 29.9 µM | TGI (SW-620 colon): > 100 µM | GI50 (OVCAR-5 ovarian): > 100 µM | TGI (OVCAR-5 ovarian): > 100 µM | GI50 (BT-549 breast): 51.4 µM | TGI (BT-549 breast): > 100 µM | GI50 (LOX IMVI melanoma): 1.09 µM | TGI (LOX IMVI melanoma): 5.66 µM | GI50 (SF-295 CNS): 44.4 µM | TGI (SF-295 CNS): > 100 µM | GI50 (M19-MEL melanoma): 19.9 µM | TGI (M19-MEL melanoma): 37 µM | GI50 (COLO 205 colon): 49.9 µM | TGI (COLO 205 colon): > 70.4 µM | GI50 (UACC-62 melanoma): > 59.8 µM | TGI (UACC-62 melanoma): > 100 µM | GI50 (T-47D breast): > 100 µM | TGI (T-47D breast): > 100 µM | GI50 (UO-31 renal): 42.7 µM | TGI (UO-31 renal): > 78.4 µM

From PubChem BioAssay (NCI)
